After the bases stand the sugars from the 5' end (letter, count) and the backbone: PS all phosphorothioate, else s phosphorothioate and o phosphodiester by linkage. Methylation of C is not given here. e = 2'-O-(2-methoxyethyl) (MOE); k = constrained ethyl (cEt); d = 2'-deoxy (DNA); m = 2'-O-methyl

The data set addresses HSD17B13. The note with it: ASO, HepaRG.

Sequence TAGTGAACATACATTG (sugars k3 d10 k3, PS) displayed a target mRNA inhibition (1 µM) of 23%.

Where the note is “1 µM”, “GTCACCTTTCATAATG (sugars k3 d9 k3 e1, PS)” displayed a target mRNA inhibition of 21%. The same measure, in the same setting: the figure for “TACCTCTAAGTTAGCC (sugars k3 d9 k3 e1, PS)” is 30%. GATTACCCCTGGCTTT (sugars k3 d10 k3, PS) displayed a target mRNA inhibition (1 µM) of 31%.

Take “AAGACATTCTAGCCTG (sugars k3 d1 m1 d8 k3, PS)”: the target mRNA inhibition (1 µM) turned out to be 54%. Same read-out and setting: next, “TTAGTCTTGATGTAGT (sugars kkdddddddddkekek, PS)”: 36%.

For “TCTTGACAATGGTTGC (sugars k3 d1 m1 d8 k3, PS)”, the target mRNA inhibition (0.02 µM) amounted to 25%; the target mRNA inhibition (0.078 µM) was 16%; the target mRNA inhibition (0.313 µM) came out at 39%; the target mRNA inhibition (1 µM) is 67%; the target mRNA inhibition (1.25 µM) stood at 60%; the target mRNA inhibition (5 µM) was determined as 87%. As to GCTAATGTATGAGGTC (sugars k3 d10 k3, PS), the target mRNA inhibition is, setting by setting: (0.02 µM) 0%; (0.078 µM) 0%; (0.313 µM) 34%; (1 µM) 78%; (1.25 µM) 64%; (5 µM) 82%.

TAGTCCATGCAAAAGC (sugars k3 d10 k3, PS) came in with a target mRNA inhibition (1 µM) of 66%. Under “1 µM”, AGCTAGATACTCAATT (sugars k3 d10 k3, PS) came in with a target mRNA inhibition of 2%. Sequence CATAAGGCCGATTCAT (sugars k3 d10 k3, PS) yielded a target mRNA inhibition (1 µM) of 32%.

Where the note is “1 µM”, TACAGATTGGAATGCT (sugars k3 d10 k3, PS) came in with a target mRNA inhibition of 46%. For the sequence GCTAAAATGGTCATCT (sugars k3 d10 k3, PS), the target mRNA inhibition (1 µM) came to 40%.

With GCTGCTATTTAGGGCA (sugars k3 d10 k3, PS), the target mRNA inhibition (1 µM) came to 53%.

With AATTATACTTTTCCGT (sugars k3 d10 k3, PS), the target mRNA inhibition (1 µM) was determined as 66%. Regarding GCTTTAGCTTAAACTC (sugars k3 d10 k3, PS), where the note is “1 µM”, the target mRNA inhibition came to 72%.

TTCTCTTGACAATGGT (sugars k3 d10 k3, PS) displayed a target mRNA inhibition (1 µM) of 67%. As to AGTCCTTGTGTAGTCC (sugars k3 d10 k3, PS), under “1 µM”, the target mRNA inhibition was 64%.

In turn, CAGAAAGTTCATTCGA (sugars k3 d10 k3, PS) displayed a target mRNA inhibition (1 µM) of 67%. AATAGAGTCGGTCACC (sugars k3 d10 k3, PS) came in with a target mRNA inhibition (1 µM) of 58%. For the sequence CATCAAGACATTCTAG (sugars k3 d10 k3, PS), the target mRNA inhibition (1 µM) was determined as 49%.

For the sequence GAAGGATTTCTAGGAT (sugars k3 d10 k3, PS), the target mRNA inhibition amounted to 0% (0.02 µM); 0% (0.078 µM); 24% (0.313 µM); 71% (1 µM); 61% (1.25 µM); 88% (5 µM). With ATCCTGTAAACACTTC (sugars k3 d10 k3, PS), the target mRNA inhibition (0.02 µM) is 11%; the target mRNA inhibition (0.078 µM) worked out at 13%; the target mRNA inhibition (0.313 µM) was 27%; the target mRNA inhibition (1 µM) is 79%; the target mRNA inhibition (1.25 µM) turned out to be 66%; the target mRNA inhibition (5 µM) worked out at 87%. In the case of TAAAGTGCTAAGTAGT (sugars k3 d10 k3, PS), the target mRNA inhibition (1 µM) turned out to be 50%.

In turn, “TAGTGGACTTCATTAG (sugars k3 d1 m1 d8 k3, PS)” gave a target mRNA inhibition (1 µM) of 34%. With AGCTGGTAAAGGTAAG (sugars k3 d10 k3, PS), where the note is “1 µM”, the target mRNA inhibition came to 55%. Turning to GGCAAGGATACCTGAA (sugars k3 d10 k3, PS), where the note is “1 µM”, the target mRNA inhibition amounted to 67%. Regarding AGGATGTTGACCTCAA (sugars k3 d10 k3, PS), the target mRNA inhibition (1 µM) came out at 4%.

Turning to CTTCAGTTAGCAGCTA (sugars k3 d10 k3, PS), the target mRNA inhibition (1 µM) was found to be 50%.

For the setting “1 µM”, CATATACAGACTAAGG (sugars k3 d10 k3, PS) displayed a target mRNA inhibition of 57%. For the setting “1 µM”, TCTAAAGTGCTGGTTG (sugars k3 d10 k3, PS) returned a target mRNA inhibition of 34%. On the same count and under the same terms, the figure for CTGTGGCATGGCTACA (sugars k3 d10 k3, PS) is 66%; for CTGGTTCAGTCCTTGT (sugars k3 d10 k3, PS) it is 63%; for ACACCGCGCTTATTAA (sugars k3 d10 k3, PS) it is 7%. Same read-out and setting: next, TAAGTGTAAGAGACAT (sugars k3 d10 k3, PS): 63%.

With GAGCATTCATCAGATG (sugars k3 d10 k3, PS), where the note is “1 µM”, the target mRNA inhibition turned out to be 64%. Consider “GTATCTTATAAGACTA (sugars k3 d1 m1 d8 k3, PS)”, for which the target mRNA inhibition stood at 13% (0.02 µM); 26% (0.078 µM); 39% (0.313 µM); 79% (1 µM); 66% (1.25 µM); 84% (5 µM). On to CACCTGATTTAGAGAG (sugars k3 d10 k3, PS), for which the target mRNA inhibition (1 µM) turned out to be 11%. TTAAATCAGGCAGTCA (sugars k3 d10 k3, PS): the target mRNA inhibition (1 µM) was found to be 45%.

In the case of GGGACCAAGGATATAT (sugars k3 d10 k3, PS), the target mRNA inhibition (1 µM) is 17%. In turn, GGCTTAATGTTCAGTT (sugars k3 d10 k3, PS) gave a target mRNA inhibition (1 µM) of 54%.

Where the note is “1 µM”, TTCCGGTAAGAATTTC (sugars k3 d10 k3, PS) yielded a target mRNA inhibition of 33%. Same read-out and setting: the figure for TAAACCTTCCCTGTGT (sugars k3 d10 k3, PS) is 17%; for TACAGTAGGCAGTTTC (sugars k3 d10 k3, PS) it is 60%. The same measure, in the same setting: next, GACAACTGATGTCCAG (sugars k3 d10 k3, PS): 12%; “ACTGCTGCTAGTGCCA (sugars kkdddddddddkekek, PS)”: 39%. In the case of ATCCTATATACATCCA (sugars k3 d10 k3, PS), the target mRNA inhibition reads like this: (0.02 µM) 3%; (0.078 µM) 8%; (0.313 µM) 36%; (1 µM) 76%; (1.25 µM) 72%; (5 µM) 92%.

In the case of GAATCCATTCTATGCA (sugars k3 d10 k3, PS), where the note is “1 µM”, the target mRNA inhibition was determined as 47%.

Take “GCAGAAATTCACCTTG (sugars k3 d1 m1 d8 k3, PS)”: where the note is “1 µM”, the target mRNA inhibition is 54%. In turn, TATCAACCTGCACACC (sugars k3 d10 k3, PS) registered a target mRNA inhibition (1 µM) of 62%. As for CATAAGTTACCAGAGC (sugars k3 d10 k3, PS), the target mRNA inhibition worked out at 26% (0.02 µM); 41% (0.078 µM); 63% (0.313 µM); 80% (1 µM); 86% (1.25 µM); 94% (5 µM).

On to GAATAGCCATGTAGCT (sugars k3 d10 k3, PS), for which the target mRNA inhibition (1 µM) came out at 21%. GGCAAAAGGAGCCAGT (sugars k3 d10 k3, PS): where the note is “1 µM”, the target mRNA inhibition worked out at 43%. For the setting “1 µM”, AGGGAAGATCTGGCTG (sugars k3 d10 k3, PS) came in with a target mRNA inhibition of 4%. For the sequence GTGGATTACATACAAG (sugars k3 d10 k3, PS), the target mRNA inhibition (1 µM) is 57%. With AGCCAGTACAGTTCCT (sugars k3 d10 k3, PS), for the setting “1 µM”, the target mRNA inhibition came to 58%. For AATACCCTTGGTGGAG (sugars k3 d10 k3, PS), the target mRNA inhibition (1 µM) was 16%. The sequence “AGTAGTGTAAGCTGAG (sugars kkdddddddddkekek, PS)” showed a target mRNA inhibition (1 µM) of 52%. Take GAGTAGTGTAAGCTGA (sugars k3 d10 k3, PS): the target mRNA inhibition by setting is: (0.02 µM) 12%; (0.078 µM) 12%; (0.313 µM) 51%; (1 µM) 80%; (1.25 µM) 69%; (5 µM) 92%. Consider “GCAGAAATTCACCTTG (sugars k3 d9 k3 e1, PS)”, for which the target mRNA inhibition (1 µM) came to 62%. As for TAACCAATTATATGAG (sugars k3 d10 k3, PS), under “1 µM”, the target mRNA inhibition is 0%. Consider ATCTAGAACACTTGCC (sugars k3 d10 k3, PS), for which the target mRNA inhibition (1 µM) came out at 27%.

For the setting “1 µM”, CTATGCAAGCCTTCAC (sugars k3 d10 k3, PS) gave a target mRNA inhibition of 19%.

Where the note is “1 µM”, TCCAGAATAGAGTTGC (sugars k3 d10 k3, PS) came in with a target mRNA inhibition of 46%. Consider “AGAGTCGGTCACCTTT (sugars k3 d9 k3 e1, PS)”, for which the target mRNA inhibition (1 µM) was 66%. As to ATAGCAAGCCAACAGA (sugars k3 d10 k3, PS), the target mRNA inhibition (1 µM) came out at 37%. AGTTTTGGGACCAATA (sugars k3 d10 k3, PS): the target mRNA inhibition (1 µM) came out at 31%.

In the case of GATCCATATTCCCTGA (sugars k3 d10 k3, PS), the target mRNA inhibition by setting is: (0.02 µM) 0%; (0.078 µM) 0%; (0.313 µM) 21%; (1 µM) 74%; (1.25 µM) 40%; (5 µM) 60%. For GCAATAGTACTATAGT (sugars k3 d10 k3, PS), the target mRNA inhibition (1 µM) was 39%.

Turning to “GATTAGTCTTGATGTA (sugars k3 d1 m1 d8 k3, PS)”, for the setting “1 µM”, the target mRNA inhibition is 45%. AACAATATGGGATGAG (sugars k3 d10 k3, PS) had a target mRNA inhibition (1 µM) of 39%. The same measure, in the same setting: next, ATGCAAGATTTACTTC (sugars k3 d10 k3, PS): 38%; TCACAATCTAGCAACC (sugars k3 d10 k3, PS): 4%; AAATCATGGTGTGGAG (sugars k3 d10 k3, PS): 1%.

CGGCACTCAGCTGCAG (sugars k3 d10 k3, PS) came in with a target mRNA inhibition (1 µM) of 55%. On the same count and under the same terms, the figure for CTCTTCATCCTTGGTG (sugars k3 d10 k3, PS) is 25%.

For the origin of these results see the OligoGym collection.
